The test system of series [1] is Gastric Mucosal Injury Due to Stress of Water Immersion Restraint in Rat. Nature of the series: Suppressive action on gastric mucosal injury due to stress of water immersion restraint in rat. The series is classed as in vivo. The settings on record: male SD rats, 3 mg/kg orally 30 minutes before stressing. As for the experimental part:
Suppressive Action on Gastric Mucosal Injury Due to Stress of Water Immersion Restraint in Rat
Male SD rats (7 weeks of age, weighing 230 to 250 g) were fasted for 24 hours, after which they were stressed by being housed in restraint cages and immersed to below the xiphoid process in a standing position in a 23° C. constant-temperature water chamber. After 5 hours, the rats were removed from the cages and sacrificed using gaseous carbon dioxide, and their stomachs excised. After the lower portion of the esophagus was clipped, a 1% formalin solution (10 ml) was injected into the stomach via the duodenum, which was then occluded, and the stomach was immersed in the same solution. After 10 minutes, an incision was made along the greater curvature, and the length (mm) of each mucosal injury was measured under a stereomicroscope. The overall sum of the injury lengths in each stomach was taken as the gastric mucosal injury index.
The crystals of (R)-2-[[[3-methyl-4-(2,2,2-trifluoroethoxy)-2-pyridinyl]methyl]sulfinyl]-1H-benzimidazole (R(+)-lansoprazole) as obtained in Example 2 were suspended in 0.5% methyl cellulose (pH 9.5) containing 0.05 M NaHCO3 and orally administered at 30 minutes before stressing (dosing volume 2 ml/kg). Each treatment group comprised 9 animals. The control group (solvent administration group) and the drug administration group were compared by Steel's test.

A short description of series [2]: Stability during storage at 60° C. (stopper removed), content by HPLC. The series is classed as physicochemical. The settings on record: for Description: appearance after storage at 60° C. (exposed). As for the experimental part:
The crystals of R(+)-lansoprazole as obtained in Example 2 (about 5 mg) and amorphous R(+)-lansoprazole as obtained in Reference Example 1 (about 5 mg) were each taken in a colorless glass bottle, and their stability during storage at 60° C. (stopper removed) was examined. A 25 ml solution (concentration: about 0.2 mg/ml) of the sample after completion of storage in the mobile phase, along with a standard solution prepared using the initial lot, was analyzed under the HPLC conditions shown below, and the R(+)-lansoprazole content (residual percentage) was calculated from the peak area obtained.

Here are results for two compounds from patent US9145389B2, “Benzimidazole compound crystal” (Takeda Pharmaceutical Company Limited, priority 1999, dated 2015).

Take `Cc1c(OCC(F)(F)F)ccnc1C[S@@+]([O-])c1nc2ccccc2[nH]1` [Example 2, (R)-2-[[[3-methyl-4-(2,2,2-trifluoroethoxy)-2-pyridinyl]methyl]sulfinyl]-1H-benzimidazole]: the “Gastric mucosal injury index” value in series [1] (5 hours water immersion restraint, mean ± standard error, 9 animals) is given as 0.2 ± 0.2 mm. Besides, the Suppression rate in series [1] (versus control group) is 98.0%. Further, the Description result in series [2] (1 week, listed as Crystal) is “Light-brown”; in series [2] (2 weeks, listed as Crystal), “Brown”; in series [2] (4 weeks), “Brown”. Also, the “Content (Residual percentage)” value was 97.0% in series [2] (storage at 60° C. (exposed), 1 week, listed as Crystal); 93.8% in series [2] (storage at 60° C. (exposed), 2 weeks, listed as Crystal); 91.7% in series [2] (storage at 60° C. (exposed), 4 weeks). Also, the Content retained entry in series [2] (storage at 60° C. (exposed), for up to 4 weeks) is on record as “exceeding 90%”.
Turning to `Cc1c(OCC(F)(F)F)ccnc1C[S@@+]([O-])c1nc2ccccc2[nH]1` [Reference Example 1, (R)-2-[[[3-methyl-4-(2,2,2-trifluoroethoxy)-2-pyridinyl]methyl]sulfinyl]-1H-benzimidazole, reference compound], the Description entry in series [2] (1 week, listed as Amorphous) is “Brown”; in series [2] (2 weeks, listed as Amorphous), “Blackish brown”. Besides, the “Content (Residual percentage)” value in series [2] (storage at 60° C. (exposed), 1 week) is given as 70.8%; in series [2] (storage at 60° C. (exposed), 1 week, listed as Amorphous), 70.8%; in series [2] (storage at 60° C. (exposed), 2 weeks) it was 57.5%; in series [2] (storage at 60° C. (exposed), 2 weeks, listed as Amorphous), 57.5%.
